Legend:
healthy human subjects = conditions: cited from earlier work
animals = conditions: cited from earlier work
[1] = test system: adult (18-65 yrs) primary insomnia subjects; experiment: 3 week placebo controlled parallel group outpatient study of daytime performance (VAS, Sheehan disability scale); type: in vivo, human; conditions: doses 5, 10 and 15 mg, about ½ hour before bedtime; 3 weeks; effect more pronounced during week 2 and 3
Procedure: The daytime performance (used interchangeably with daytime function) in adult (18-65 yrs) primary insomnia subjects (Diagnostic and Statistical Manual of Mental Disorders—Fourth Edition, […]) has been assessed in a 3 week placebo controlled parallel group, outpatient study. The performance was measured with standardized questions using a 100 point Visual Analogue Scale (VAS). The questions asked for subjects to report on their daytime ability to function, tiredness, energy and relaxedness. Subject responses were recorded in a diary in the evening on the day after each treatment night (gaboxadol was administered about ½ hour before bedtime). Moreover, daytime function was recorded once weekly using the Sheehan disability scale (Sheehan et al., 1996, “The measurement of disability,” International Clinical Psychopharmacology 11 (suppl. 3), 89-95).

[2] = test system: adult subjects with primary insomnia; experiment: Polysomnograph (PSG) study in adult subjects with primary insomnia; type: in vivo, human
Procedure: (§1) Effect is confirmed for short-term treatment in studies using acute treatment in healthy subjects exposed to a phase advance model. Assessment of effect on insomnia during intermediate term treatment duration is performed in primary insomnia subjects using treatment duration up to 4 weeks. Long term or chronic treatment is assessed in 12 month safety studies. Subject populations include primary insomnia subjects with age range 18-65 yrs (adults) and 65 and above (elderly).
(§2) Sleep maintenance is measured by either of parameters wakefulness after sleep onset, number of awakenings after sleep onset or total sleep time. […] In these studies, the effect was also confirmed by the subjects own feelings of the sleep initiation. Based both on PSG and on subjective diary recording, gaboxadol doses of 5 to 15 mg are highly preferred to achieve effect in adults and elderly (gaboxadol was administered from ½ hour before bedtime up to immediately before going to bed).

human subjects = experiment: EEG slow wave sleep and spectral analysis in the clinical studies; type: in vivo; conditions: similar effect range as for slow wave sleep
From the text: Moreover, gaboxadol induced a dose-dependent increase in duration of slow wave sleep (SWS), that is, stages 3 and 4, which is considered the deepest stage of sleep. The effect ranged between +15 and 46% compared to placebo.

[3] = test system: healthy subjects exposed to a phase advance model; experiment: Phase advance model in healthy subjects (PSG and subjective recording); type: in vivo, human
Procedure: as §1, §2

SMILES: Oc1noc2c1CCNC2 [gaboxadol, 4,5,6,7-tetrahydroisoxazolo(5,4-c)pyridin-3-ol]
- deep sleep (healthy human subjects): promote deep sleep
- influence on REM sleep (healthy human subjects): no disrupting influence on REM sleep
- sleep maintenance (healthy human subjects): increase sleep maintenance
- nonREMS amount and nonREMS/REMS episode duration (animals): increasing total amount of nonREMS and lengthening the duration of the nonREMS and REMS episodes
- daytime performance (weekly means of VAS questions and Sheehan disability scale) [1]: significantly improve daytime performance
- sleep maintenance as measured by polysomnograph (wakefulness after sleep onset, number of awakenings after sleep onset or total sleep time) ([2]; adult subjects with primary insomnia, oral, from ½ hour before bedtime up to bedtime): improves sleep maintenance
- sleep initiation ([2]; primary insomnia subjects, confirmed by subjects' own feelings): facilitated sleep initiation
- slow wave activity in EEG spectral analysis (human subjects): increase of slow wave activity
- sleep maintenance as measured by polysomnograph (wakefulness after sleep onset, number of awakenings after sleep onset or total sleep time) ([3]; healthy subjects, phase advance model): improves sleep maintenance
- subjects' own perception of the sleep maintenance effect ([3]; healthy subjects, phase advance model, subjective): decreased wakefulness
- lowest dose at which the sleep maintenance effect was observed ([3]; oral, study not clearly specified in the text): about 5 mg per day
- sleep initiation ([3]; subjects in a phase advance model, confirmed by subjects' own feelings): facilitated sleep initiation
